system: SK-MEL-2; test: SRB 48 h growth assay, Melanoma SK-MEL-2; format: cell-based, human; details: Homo sapiens, SK-MEL-2, Melanoma, read-out: Log10 LC50 (converted)

| Structure (SMILES) | CC50 [µM] |
| --- | --- |
| C#Cc1ccc(-n2c(/C=C/c3ccc(C(F)(F)F)cc3)nc3ncccc3c2=O)cc1 [4c, (E)-3-(4-Ethynylphenyl)-2-(4-(trifluoromethyl)styryl)pyrido[2,3-d]pyrimidin-4(3H)-one] | 8.32 |

same assay, conditions: SK-MEL-2, Melanoma

| Structure (SMILES) | Log10 TGI50 |
| --- | --- |
| C#Cc1ccc(-n2c(/C=C/c3ccc(C(F)(F)F)cc3)nc3ncccc3c2=O)cc1 [4c, (E)-3-(4-Ethynylphenyl)-2-(4-(trifluoromethyl)styryl)pyrido[2,3-d]pyrimidin-4(3H)-one] | −5.39 |

system: HCC-2998; test: SRB 48 h growth assay, Colon HCC-2998; format: cell-based, human; details: HCC-2998, Colon

| Structure (SMILES) | Log10 TGI50 |
| --- | --- |
| C#Cc1ccc(-n2c(/C=C/c3ccc(C(F)(F)F)cc3)nc3ncccc3c2=O)cc1 [4c, (E)-3-(4-Ethynylphenyl)-2-(4-(trifluoromethyl)styryl)pyrido[2,3-d]pyrimidin-4(3H)-one] | −5.46 |

same assay, conditions: Homo sapiens, HCC-2998, Colon, read-out: Growth Inhibition GI50

| Structure (SMILES) | GI50 [nM] |
| --- | --- |
| C#Cc1ccc(-n2c(/C=C/c3ccc(C(F)(F)F)cc3)nc3ncccc3c2=O)cc1 [4c, (E)-3-(4-Ethynylphenyl)-2-(4-(trifluoromethyl)styryl)pyrido[2,3-d]pyrimidin-4(3H)-one] | 1960 |

same assay, conditions: Homo sapiens, HCC-2998, Colon, read-out: Log10 GI50 (converted)

| Structure (SMILES) | GI50 [nM] |
| --- | --- |
| C#Cc1ccc(-n2c(/C=C/c3ccc(C(F)(F)F)cc3)nc3ncccc3c2=O)cc1 [4c, (E)-3-(4-Ethynylphenyl)-2-(4-(trifluoromethyl)styryl)pyrido[2,3-d]pyrimidin-4(3H)-one] | 1950 |

same assay, conditions: Homo sapiens, HCC-2998, Colon, read-out: Log10 LC50 (converted)

| Structure (SMILES) | CC50 [µM] |
| --- | --- |
| C#Cc1ccc(-n2c(/C=C/c3ccc(C(F)(F)F)cc3)nc3ncccc3c2=O)cc1 [4c, (E)-3-(4-Ethynylphenyl)-2-(4-(trifluoromethyl)styryl)pyrido[2,3-d]pyrimidin-4(3H)-one] | 6.17 |

system: OVCAR-5; test: SRB 48 h growth assay, Ovarian OVCAR-5; format: cell-based, human; details: Homo sapiens, OVCAR-5, Ovarian, read-out: Growth Inhibition GI50

| Structure (SMILES) | GI50 [nM] |
| --- | --- |
| C#Cc1ccc(-n2c(/C=C/c3ccc(C(F)(F)F)cc3)nc3ncccc3c2=O)cc1 [4c, (E)-3-(4-Ethynylphenyl)-2-(4-(trifluoromethyl)styryl)pyrido[2,3-d]pyrimidin-4(3H)-one] | 1940 |

same assay, conditions: Homo sapiens, OVCAR-5, Ovarian, read-out: Log10 GI50 (converted)

| Structure (SMILES) | GI50 [nM] |
| --- | --- |
| C#Cc1ccc(-n2c(/C=C/c3ccc(C(F)(F)F)cc3)nc3ncccc3c2=O)cc1 [4c, (E)-3-(4-Ethynylphenyl)-2-(4-(trifluoromethyl)styryl)pyrido[2,3-d]pyrimidin-4(3H)-one] | 1950 |

same assay, conditions: Homo sapiens, OVCAR-5, Ovarian, read-out: Log10 LC50 (converted)

| Structure (SMILES) | CC50 [µM] |
| --- | --- |
| C#Cc1ccc(-n2c(/C=C/c3ccc(C(F)(F)F)cc3)nc3ncccc3c2=O)cc1 [4c, (E)-3-(4-Ethynylphenyl)-2-(4-(trifluoromethyl)styryl)pyrido[2,3-d]pyrimidin-4(3H)-one] | 6.61 |

same assay, conditions: OVCAR-5, Ovarian

| Structure (SMILES) | Log10 TGI50 |
| --- | --- |
| C#Cc1ccc(-n2c(/C=C/c3ccc(C(F)(F)F)cc3)nc3ncccc3c2=O)cc1 [4c, (E)-3-(4-Ethynylphenyl)-2-(4-(trifluoromethyl)styryl)pyrido[2,3-d]pyrimidin-4(3H)-one] | −5.45 |

system: SR; test: SRB 48 h growth assay, Leukemia SR; format: cell-based, human; details: not given

| Structure (SMILES) | Log10 TGI50 |
| --- | --- |
| C#Cc1ccc(-n2c(/C=C/c3ccc(C(F)(F)F)cc3)nc3ncccc3c2=O)cc1 [4c, (E)-3-(4-Ethynylphenyl)-2-(4-(trifluoromethyl)styryl)pyrido[2,3-d]pyrimidin-4(3H)-one] | −5.09 |

same assay, conditions: Homo sapiens, read-out: Growth Inhibition GI50

| Structure (SMILES) | GI50 [nM] |
| --- | --- |
| C#Cc1ccc(-n2c(/C=C/c3ccc(C(F)(F)F)cc3)nc3ncccc3c2=O)cc1 [4c, (E)-3-(4-Ethynylphenyl)-2-(4-(trifluoromethyl)styryl)pyrido[2,3-d]pyrimidin-4(3H)-one] | 2000 |

same assay, conditions: Homo sapiens, read-out: Log10 GI50 (converted)

| Structure (SMILES) | GI50 [nM] |
| --- | --- |
| C#Cc1ccc(-n2c(/C=C/c3ccc(C(F)(F)F)cc3)nc3ncccc3c2=O)cc1 [4c, (E)-3-(4-Ethynylphenyl)-2-(4-(trifluoromethyl)styryl)pyrido[2,3-d]pyrimidin-4(3H)-one] | 2000 |

same assay, conditions: Homo sapiens, read-out: Log10 LC50 (converted)

| Structure (SMILES) | CC50 [µM] |
| --- | --- |
| C#Cc1ccc(-n2c(/C=C/c3ccc(C(F)(F)F)cc3)nc3ncccc3c2=O)cc1 [4c, (E)-3-(4-Ethynylphenyl)-2-(4-(trifluoromethyl)styryl)pyrido[2,3-d]pyrimidin-4(3H)-one] | > 100 |

system: CAKI-1; test: SRB 48 h growth assay, Renal CAKI-1; format: cell-based, human; details: CAKI-1, Renal

| Structure (SMILES) | Log10 TGI50 |
| --- | --- |
| C#Cc1ccc(-n2c(/C=C/c3ccc(C(F)(F)F)cc3)nc3ncccc3c2=O)cc1 [4c, (E)-3-(4-Ethynylphenyl)-2-(4-(trifluoromethyl)styryl)pyrido[2,3-d]pyrimidin-4(3H)-one] | −5.21 |

same assay, conditions: Homo sapiens, CAKI-1, Renal, read-out: Growth Inhibition GI50

| Structure (SMILES) | GI50 [nM] |
| --- | --- |
| C#Cc1ccc(-n2c(/C=C/c3ccc(C(F)(F)F)cc3)nc3ncccc3c2=O)cc1 [4c, (E)-3-(4-Ethynylphenyl)-2-(4-(trifluoromethyl)styryl)pyrido[2,3-d]pyrimidin-4(3H)-one] | 2260 |

same assay, conditions: Homo sapiens, CAKI-1, Renal, read-out: Log10 GI50 (converted)

| Structure (SMILES) | GI50 [nM] |
| --- | --- |
| C#Cc1ccc(-n2c(/C=C/c3ccc(C(F)(F)F)cc3)nc3ncccc3c2=O)cc1 [4c, (E)-3-(4-Ethynylphenyl)-2-(4-(trifluoromethyl)styryl)pyrido[2,3-d]pyrimidin-4(3H)-one] | 2240 |

same assay, conditions: Homo sapiens, CAKI-1, Renal, read-out: Log10 LC50 (converted)

| Structure (SMILES) | CC50 [µM] |
| --- | --- |
| C#Cc1ccc(-n2c(/C=C/c3ccc(C(F)(F)F)cc3)nc3ncccc3c2=O)cc1 [4c, (E)-3-(4-Ethynylphenyl)-2-(4-(trifluoromethyl)styryl)pyrido[2,3-d]pyrimidin-4(3H)-one] | > 100 |

system: SN12C; test: SRB 48 h growth assay, Renal SN12C; format: cell-based, human; details: not given

| Structure (SMILES) | Log10 TGI50 |
| --- | --- |
| C#Cc1ccc(-n2c(/C=C/c3ccc(C(F)(F)F)cc3)nc3ncccc3c2=O)cc1 [4c, (E)-3-(4-Ethynylphenyl)-2-(4-(trifluoromethyl)styryl)pyrido[2,3-d]pyrimidin-4(3H)-one] | −5.25 |

same assay, conditions: Homo sapiens, read-out: Growth Inhibition GI50

| Structure (SMILES) | GI50 [nM] |
| --- | --- |
| C#Cc1ccc(-n2c(/C=C/c3ccc(C(F)(F)F)cc3)nc3ncccc3c2=O)cc1 [4c, (E)-3-(4-Ethynylphenyl)-2-(4-(trifluoromethyl)styryl)pyrido[2,3-d]pyrimidin-4(3H)-one] | 2080 |

same assay, conditions: Homo sapiens, read-out: Log10 GI50 (converted)

| Structure (SMILES) | GI50 [nM] |
| --- | --- |
| C#Cc1ccc(-n2c(/C=C/c3ccc(C(F)(F)F)cc3)nc3ncccc3c2=O)cc1 [4c, (E)-3-(4-Ethynylphenyl)-2-(4-(trifluoromethyl)styryl)pyrido[2,3-d]pyrimidin-4(3H)-one] | 2090 |

same assay, conditions: Homo sapiens, read-out: Log10 LC50 (converted)

| Structure (SMILES) | CC50 [µM] |
| --- | --- |
| C#Cc1ccc(-n2c(/C=C/c3ccc(C(F)(F)F)cc3)nc3ncccc3c2=O)cc1 [4c, (E)-3-(4-Ethynylphenyl)-2-(4-(trifluoromethyl)styryl)pyrido[2,3-d]pyrimidin-4(3H)-one] | > 100 |

system: MALME-3M; test: SRB 48 h growth assay, Melanoma MALME-3M; format: cell-based, human; details: not given

| Structure (SMILES) | Log10 TGI50 |
| --- | --- |
| C#Cc1ccc(-n2c(/C=C/c3ccc(C(F)(F)F)cc3)nc3ncccc3c2=O)cc1 [4c, (E)-3-(4-Ethynylphenyl)-2-(4-(trifluoromethyl)styryl)pyrido[2,3-d]pyrimidin-4(3H)-one] | −5.45 |

same assay, conditions: Homo sapiens, read-out: Growth Inhibition GI50

| Structure (SMILES) | GI50 [nM] |
| --- | --- |
| C#Cc1ccc(-n2c(/C=C/c3ccc(C(F)(F)F)cc3)nc3ncccc3c2=O)cc1 [4c, (E)-3-(4-Ethynylphenyl)-2-(4-(trifluoromethyl)styryl)pyrido[2,3-d]pyrimidin-4(3H)-one] | 1640 |

same assay, conditions: Homo sapiens, read-out: Log10 GI50 (converted)

| Structure (SMILES) | GI50 [nM] |
| --- | --- |
| C#Cc1ccc(-n2c(/C=C/c3ccc(C(F)(F)F)cc3)nc3ncccc3c2=O)cc1 [4c, (E)-3-(4-Ethynylphenyl)-2-(4-(trifluoromethyl)styryl)pyrido[2,3-d]pyrimidin-4(3H)-one] | 1660 |

same assay, conditions: Homo sapiens, read-out: Log10 LC50 (converted)

| Structure (SMILES) | CC50 [µM] |
| --- | --- |
| C#Cc1ccc(-n2c(/C=C/c3ccc(C(F)(F)F)cc3)nc3ncccc3c2=O)cc1 [4c, (E)-3-(4-Ethynylphenyl)-2-(4-(trifluoromethyl)styryl)pyrido[2,3-d]pyrimidin-4(3H)-one] | 7.76 |

system: A498; test: SRB 48 h growth assay, Renal A498; format: cell-based, human; details: not given

| Structure (SMILES) | Log10 TGI50 |
| --- | --- |
| C#Cc1ccc(-n2c(/C=C/c3ccc(C(F)(F)F)cc3)nc3ncccc3c2=O)cc1 [4c, (E)-3-(4-Ethynylphenyl)-2-(4-(trifluoromethyl)styryl)pyrido[2,3-d]pyrimidin-4(3H)-one] | −5.24 |

same assay, conditions: Homo sapiens, read-out: Growth Inhibition GI50

| Structure (SMILES) | GI50 [nM] |
| --- | --- |
| C#Cc1ccc(-n2c(/C=C/c3ccc(C(F)(F)F)cc3)nc3ncccc3c2=O)cc1 [4c, (E)-3-(4-Ethynylphenyl)-2-(4-(trifluoromethyl)styryl)pyrido[2,3-d]pyrimidin-4(3H)-one] | 2340 |

same assay, conditions: Homo sapiens, read-out: Log10 GI50 (converted)

| Structure (SMILES) | GI50 [nM] |
| --- | --- |
| C#Cc1ccc(-n2c(/C=C/c3ccc(C(F)(F)F)cc3)nc3ncccc3c2=O)cc1 [4c, (E)-3-(4-Ethynylphenyl)-2-(4-(trifluoromethyl)styryl)pyrido[2,3-d]pyrimidin-4(3H)-one] | 2400 |

same assay, conditions: Homo sapiens, read-out: Log10 LC50 (converted)

| Structure (SMILES) | CC50 [µM] |
| --- | --- |
| C#Cc1ccc(-n2c(/C=C/c3ccc(C(F)(F)F)cc3)nc3ncccc3c2=O)cc1 [4c, (E)-3-(4-Ethynylphenyl)-2-(4-(trifluoromethyl)styryl)pyrido[2,3-d]pyrimidin-4(3H)-one] | 24 |
